Results taken from patent US20230012936A1, “COMBINATION THERAPY USING GLUCAGON AND GLP-1 CO-AGONISTS FOR THE TREATMENT OF OBESITY” (MEDIMMUNE, LLC, priority 2019, published 2023).
Read-outs that look alike come from different tables or passages of the source.

Columns and labels:
Assay type in all cases: in vivo, human
[1] = system: overweight/obese subjects with Type 2 Diabetes Mellitus (T2DM); assay: 24-hour glucose urine excretion; conditions: Day 28
Experimental: Changes in 24-hour glucose urine excretion from baseline to Day 28 were assessed. At baseline, subjects in the cotadutide group had less urine glucose excretion compared with subjects in the placebo group (4552.85 vs 9107.06 mg/24 hr, respectively).

[2] = system: overweight/obese subjects with Type 2 Diabetes Mellitus (T2DM); conditions: for Change from baseline in percentage of CGM glucose readings within the hyperglycemic range, mean: glucose >180 mg/dL; for Change from baseline in percentage of CGM glucose readings within the euglycemic range, mean: glucose ≥70 and ≤180 mg/dL; for 7-Day CGM mean glucose, mean / 7-Day CGM mean glucose, median: post-hoc
Description: A continuous glucose monitoring (CGM) device was used to measure interstitial glucose levels during the study. Subjects wore the CGM sensor continuously up until the time of a sensor change (every 7 to 14 days). If a subject was unable to tolerate wearing the CGM sensor for the entire duration of the study, the sensor was to be removed; but the subject should have remained in the study with or without continued CGM.
Subjects underwent continuous glucose monitoring (CGM) for a total of 28 days with sensor changes every 7 to 14 days. The changes in CGM glucose AUC0-24 h and mean glucose over 24 hours from baseline to the end of each dosing level on Days 7 (100 μg), 14 (200 μg), and 28 (300 μg) were measured. Variability in glucose levels was also assessed by measuring the changes in standard deviation (SD), coefficient of variation (CV), and mean amplitude of glucose excursion (MAGE) of CGM glucose values over 24 hours.
Changes from baseline in the percentages of 24-hour CGM glucose readings that fell within the euglycemic, hyperglycemic, hypoglycemic, and clinically significant hypoglycemic ranges were assessed at the end of each dosing level.
In addition, a post-hoc analysis of CGM mean glucose over 7 days was conducted to further evaluate the effect of cotadutide on glucose control at each dose level.

[3] = system: overweight/obese subjects with Type 2 Diabetes Mellitus (T2DM); assay: Mixed-meal tolerance test (MMTT) plasma glucose AUC0-4 h, Phase 2a study
Experimental: Subjects were admitted to the unit on Day −2 and on Day 27. On Day −1 and on Day 28, following a minimum 10 hour fast, a blood sample for glucose metabolism panel (glucose, insulin, C-peptide, glucagon, and active GLP-1) was taken immediately prior to the subject drinking a standardized mixed meal (t=“0 minutes”). The subject then consumed a can of Ensure Plus, which is a nutritional supplement containing the components of fat, carbohydrate, and protein that make up a standard mixed-meal tolerance test (MMTT). After the meal, timed, serial blood samples were obtained for measurement of glucose and parameters related to glucose metabolism (with no additional food intake during this time). The MMTT was performed on Day-1 and Day 28.
Blood samples for the glucose metabolism panel were drawn at t=“0 minutes” (before meal) and at 15, 30, 45, 60, 90, 120, 180, and 240 minutes (±5 minutes) after consumption of the standardized meal. Additional sampling for glucagon, insulin, C-peptide, and glucose was taken at 6, 8, 12, and 24 hours (±30 minutes) post-administration (t=“0 minutes”) of the standardized meal on Day −1 and 28.
The change and percent change from baseline (Day-1) to the end of the 28 days of treatment (Day 28) in glucose AUC0-4 h were determined as measured by the MMTT. In addition, the change from baseline (Day −1) to Day 28 in active GLP-1, glucagon, insulin, and C-peptide AUC0-4 h were also measured by MMTT.

[4] = Immunogenicity: anti-drug antibody (ADA) response to cotadutide
Experimental: Blood samples were collected to evaluate anti-drug antibody (ADA) response to cotadutide. Serum samples were evaluated for ADA using a validated immunoassay. Adverse events (AEs) and serious adverse events (SAEs) were collected from the time of informed consent throughout the treatment period and including the follow-up period. AEs and SAEs were graded by severity and relationship to investigational product and SAEs were assessed for relationship to protocol procedures.
Development of ADA and titres (in any subjects testing positive) were assessed to evaluate the immunogenicity profile of cotadutide titrated up to a dose of 300 μg. No subjects in the placebo group and 3 subjects (12.0%) in the cotadutide group tested positive for ADA at baseline. None of these subjects who tested positive at baseline were ADA positive post-baseline. One subject (4.2%) in the placebo group and 3 subjects (12.5%) in the cotadutide group were ADA positive post-baseline.

[5] = Day 28, ITT, metformin and dapagliflozin background
[6] = baseline to Day 28, vs placebo, ANCOVA

In the case of `CCCCCCCCCCCCCCCC(=O)N[C@@H](CCC(=O)NCCCC[C@H](NC(=O)[C@H](CC(=O)O)NC(=O)[C@H](CO)NC(=O)[C@@H](NC(=O)[C@H](Cc1ccccc1)NC(=O)[C@@H](NC(=O)CNC(=O)[C@H](CCC(N)=O)NC(=O)[C@H](CO)NC(=O)[C@@H](N)Cc1c[nH]cn1)[C@@H](C)O)[C@@H](C)O)C(=O)N[C@@H](CO)C(=O)N[C@@H](CCC(=O)O)C(=O)N[C@@H](Cc1ccc(O)cc1)C(=O)N[C@@H](CC(C)C)C(=O)N[C@@H](CC(=O)O)C(=O)N[C@@H](CO)C(=O)N[C@@H](CCC(=O)O)C(=O)N[C@@H](CCCNC(=N)N)C(=O)N[C@@H](C)C(=O)N[C@@H](CCCNC(=N)N)C(=O)N[C@@H](CC(=O)O)C(=O)N[C@@H](Cc1ccccc1)C(=O)N[C@H](C(=O)N[C@@H](C)C(=O)N[C@@H](Cc1c[nH]c2ccccc12)C(=O)N[C@@H](CC(C)C)C(=O)N[C@@H](CCC(=O)O)C(=O)N[C@@H](C)C(=O)NCC(=O)NCC(=O)O)C(C)C)C(=O)O` [Cotadutide], the “24-hour glucose urine excretion, change from baseline, LS mean” value [1] is reported as −643.46 mg/24h, the “24-hour glucose urine excretion, change from baseline, LS mean difference” value ([1]; vs placebo) is reported as 921.26 mg/24h and the “Change from baseline in CGM mean glucose over 24 hours, mean” value ([2]; Day 7 (100 μg)) is reported as -34.74 mg/dL. For the same compound, the “Change from baseline in MAGE of CGM glucose, mean” value ([2]; Day 7 (100 μg)) was -25.74 mg/dL, the “Change in CGM glucose AUC0-24 h from baseline, mean” value ([2]; Day 7 (100 μg)) was -832.66 mg·h/dL and the “Change in CGM glucose AUC0-24 h from baseline, median” value ([2]; Day 7 (100 μg)) was -962.95 mg·h/dL. For the same compound, the “Change in SD over 24 hours in CGM glucose from baseline, mean” value (“Change in SD … from baseline, mean” below) ([2]; Day 7 (100 μg)) was -7.21 mg/dL, the “Change in SD over 24 hours in CGM glucose from baseline, median” value (“Change in SD over 24 hours … median” below) ([2]; Day 7 (100 μg)) was -11.16 mg/dL and the “Change from baseline in percentage of CGM glucose readings within the hyperglycemic range, mean” value ([2]; Day 7) was −13.99%. The “Change from baseline in percentage of CGM glucose readings within the euglycemic range, mean” value ([2]; Day 7) was 7.12%, the “Change from baseline in CGM mean glucose over 24 hours, mean” value ([2]; Day 14 (200 μg)) was -28.34 mg/dL and the “Change from baseline in MAGE of CGM glucose, mean” value ([2]; Day 14 (200 μg)) was -26.59 mg/dL. The “Change in CGM glucose AUC0-24 h from baseline, mean” value ([2]; Day 14 (200 μg)) was -666.05 mg·h/dL, the “Change in CGM glucose AUC0-24 h from baseline, median” value ([2]; Day 14 (200 μg)) was -897.02 mg·h/dL and the “Change in SD … from baseline, mean” value ([2]; Day 14 (200 μg)) was -7.52 mg/dL. The “Change in SD over 24 hours … median” value ([2]; Day 14 (200 μg)) was -8.36 mg/dL, the “Change from baseline in percentage of CGM glucose readings within the hyperglycemic range, mean” value ([2]; Day 14) was −9.81% and the “Change from baseline in percentage of CGM glucose readings within the euglycemic range, mean” value ([2]; Day 14) was 5.31%. For the same compound, the “Change in CGM glucose AUC0-24 h from baseline, mean” value ([2]; Day 28 (LOCF) (300 μg)) was -695.16 mg·h/dL, the “Change in CGM glucose AUC0-24 h from baseline, median” value ([2]; Day 28 (LOCF) (300 μg)) was -928.48 mg·h/dL and the “Change in SD … from baseline, mean” value ([2]; Day 28 (LOCF) (300 μg)) was -8.89 mg/dL. The “Change in SD over 24 hours … median” value ([2]; Day 28 (LOCF) (300 μg)) was -9.57 mg/dL, the “Change in CGM glucose AUC0-24 h from baseline, LS mean” value ([2]; Day 28 (LOCF), ANCOVA) was -658.64 mg·h/dL and the “Change in SD over 24 hours in CGM glucose from baseline, LS mean” value ([2]; Day 28 (LOCF), ANCOVA) was -9.73 mg/dL. For the same compound, the “Change in SD over 24 hours in CGM glucose from baseline, LS mean difference” value ([2]; Day 28 (LOCF), vs placebo) was -8.45 mg/dL, the “Change in CGM glucose AUC0-24 h from baseline, LS mean difference” value ([2]; Day 28 (LOCF), vs placebo, ANCOVA) was -806.61 mg·h/dL and the “CV of CGM glucose over 24 hours, change from baseline, LS mean difference” value ([2]; Day 28, vs placebo) was −2.41%. The “Change from baseline in CGM mean glucose over 24 hours, LS mean difference” value ([2]; Day 28, vs placebo) was -34.06 mg/dL, the “Change from baseline in MAGE of CGM glucose, LS mean difference” value ([2]; Day 28, vs placebo) was -24.83 mg/dL and the “Change from baseline in percentage of CGM glucose readings within the euglycemic range, LS mean difference” value ([2]; Day 28, vs placebo) was 8.78%. For the same compound, the “Change from baseline in percentage of CGM glucose readings within the hyperglycemic range, LS mean difference” value ([2]; Day 28, vs placebo) was −12.83%, the “7-Day CGM mean glucose, mean” value ([2]; Days 1 to 7 (100 μg dose)) was 116.82 mg/dL and the “7-Day CGM mean glucose, median” value ([2]; Days 1 to 7 (100 μg dose)) was 111.40 mg/dL. For the same compound, the “7-Day CGM mean glucose, mean” value ([2]; Days 8 to 14 (200 μg dose)) was 118.78 mg/dL, the “7-Day CGM mean glucose, median” value ([2]; Days 8 to 14 (200 μg dose)) was 113.48 mg/dL and the “7-Day CGM mean glucose, mean” value ([2]; Days 15 to 21 (300 μg dose)) was 120.94 mg/dL. The “7-Day CGM mean glucose, median” value ([2]; Days 15 to 21 (300 μg dose)) was 106.17 mg/dL, the “7-Day CGM mean glucose, mean” value ([2]; Days 22 to 28 (300 μg dose)) was 115.61 mg/dL and the “7-Day CGM mean glucose, median” value ([2]; Days 22 to 28 (300 μg dose)) was 108.78 mg/dL. For the same compound, the “Change from baseline in percentage of CGM glucose readings within the hypoglycemic range, LS mean difference” value ([2]; in vivo) was 3.35%, the “Plasma glucose AUC0-4 h after MMTT, Day 28, mean” value [3, 5] was 523.72 mg·h/dL and the “Plasma glucose AUC0-4 h after MMTT, Day 28, median” value [3, 5] was 481.57 mg·h/dL. The “Plasma glucose AUC0-4 h after MMTT, change from baseline, LS mean” value ([3]; baseline to Day 28, ANCOVA) was -154.37 mg·h/dL, the “Plasma glucose AUC0-4 h after MMTT, percent change from baseline, LS mean” value ([3]; baseline to Day 28, ANCOVA) was −22.30% and the “Plasma glucose AUC0-4 h after MMTT, change from baseline, mean” value ([3]; baseline to Day 28, ITT) was -151.29 mg·h/dL. The “Plasma glucose AUC0-4 h after MMTT, change from baseline, median” value ([3]; baseline to Day 28, ITT) was -148.29 mg·h/dL, the “Plasma glucose AUC0-4 h after MMTT, percent change from baseline, mean” value ([3]; baseline to Day 28, ITT) was −22.03% and the “Plasma glucose AUC0-4 h after MMTT, percent change from baseline, median” value ([3]; baseline to Day 28, ITT) was −25.55%. For the same compound, the “Plasma glucose AUC0-4 h after MMTT, change from baseline, LS mean difference” value [3, 6] was -143.09 mg·h/dL, the “Plasma glucose AUC0-4 h after MMTT, percent change from baseline, LS mean difference” value [3, 6] was −22.17% and the “Subjects ADA positive post-baseline” value ([4]; 3 subjects) was 12.5%. For the same compound, the “Subjects ADA positive at Day 29” value ([4]; Day 29, 1 subject) was 4.2%, the “Subjects ADA positive at the End of Study” value ([4]; End of Study, 2 subjects) was 8.3% and the “Treatment boosted ADA (baseline titre boosted 4-fold or higher)” value ([4]; during drug administration) was “No subjects had a treatment boosted ADA”.
